Laboratory results reported in patent publication US4617292A, “Pharmaceutical compositions and method for inhibiting histamine release tocopheryl glycoside” (Sunstar Kabushiki Kaisha, priority 1984, dated 1986).
Where two headings read alike, the source gives them in different places.

Key:
[1] = system: mast cells; assay: Inhibition of histamine release from mast cells due to an antigen-antibody reaction (in vitro; ovalbumin-sensitized); type: cell-based, Wister male rats; conditions: Mast cell; rat peritoneal mast cells; antigenic ovalbumin 10^-4 g/ml; 5 min pre-incubation, 10 min incubation at 37° C.; corrected for spontaneous release; read-out: concentration showing 50% inhibition of histamine release
[2] = Acute toxicity (LD50); conditions: in vivo
[3] = ip, read-out: LD50 values (i.p.)
[4] = po, read-out: LD50 values (p.o.)

SMILES	IC50 [1]	LD50 [2, 3]	LD50 [2, 4]
Cc1c(C)c2c(c(C)c1OC1O[C@H](CO)[C@@H](O)[C@H](O)[C@H]1O)CCC(C)(CCCC(C)CCCC(C)CCCC(C)C)O2 (mixture of isomers) [dl-α-tocopherylglucoside, dl-α-Tocopherylglucoside]	~50 µg/mL	> 500 mg/kg	> 5000 mg/kg
Cc1c(C)c2c(c(C)c1O[C@@H]1O[C@H](CO)[C@@H](O)[C@H](O)[C@@H]1O)CCC(C)(CCCC(C)CCCC(C)CCCC(C)C)O2 (mixture of isomers) [dl-α-tocopherylmannoside, dl-α-Tocopherylmannoside]	~15 µg/mL	> 500 mg/kg	> 5000 mg/kg
